Results on five compounds are retold here after US6387909B1, “Thienopyranecarboxamide derivatives” (Recordati S.A. Chemical and Pharmaceutical Company, priority 1999, dated 2002).

Experiment [1] has as its system prostatic urethral contractions induced by noradrenaline. The conditions noted are these: dog, i.v.; data from Leonardi et al. 1997; cited from earlier work.
In experiment [2] the test system is diastolic blood pressure. To be noted: dog, i.v.; data from Leonardi et al. 1997; cited from earlier work.
Experiment [3] has as its target T1, recombinant α1a-adrenoceptor (Homo sapiens, UniProt P35348).
T1 construct: expressed in transfected cells
T1 sequence (P35348 1-466): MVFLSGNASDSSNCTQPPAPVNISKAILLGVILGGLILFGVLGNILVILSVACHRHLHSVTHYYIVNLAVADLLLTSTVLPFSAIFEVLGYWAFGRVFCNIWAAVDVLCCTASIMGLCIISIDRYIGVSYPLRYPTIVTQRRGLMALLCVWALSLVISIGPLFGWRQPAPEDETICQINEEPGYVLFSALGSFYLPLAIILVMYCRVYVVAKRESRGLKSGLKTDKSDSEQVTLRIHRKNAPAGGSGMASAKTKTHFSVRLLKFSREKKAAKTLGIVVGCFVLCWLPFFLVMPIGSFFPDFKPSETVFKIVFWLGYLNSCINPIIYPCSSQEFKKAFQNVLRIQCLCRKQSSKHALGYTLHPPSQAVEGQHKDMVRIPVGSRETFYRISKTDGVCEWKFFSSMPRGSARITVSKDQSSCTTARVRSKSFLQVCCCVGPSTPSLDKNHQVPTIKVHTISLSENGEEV
Kind of experiment: Radioligand binding ([3H]prazosin) to cloned α1a adrenoceptor. To be noted: read-out: Affinity (Ki) α1a. As to the method: (§1) Determination of affinity for cloned subtypes of the α1-adrenoceptor was performed in membranes from cells transfected by electroporation with DNA expressing the genes encoding each α1-adrenoceptor subtype.
(§2) Non-specific binding was determined in the presence of 10 μM phentolamine. Incubation was stopped by addition of ice-cold Tris buffer and rapid filtration through Schleicher & Schuell GF52 filters that had been pretreated with 0.2%-polyethyleneimine.
(§3) Data were expressed as mean of Ki.

The test system of experiment [4] is diastolic blood pressure. Kind of experiment: Blood pressure in anaesthetized dogs after intravenous administration. Type of experiment: in vivo. The conditions noted are these: dog, i.v. The procedure: (§4) The experiments were performed according to the method of Imagawa et al. (J. Pharmacol. Methods, 22:103-111, 1989), with substantial modifications, as follows: adult male beagle dogs, weighing 8-10 kg, were anaesthetized with pentobarbital sodium (30 mg/kg i.v. and 2 mg/kg/h i.v.), intubated and spontaneously ventilated with room air. In order to monitor systemic blood pressure (BP), a polyethylene (PE) catheter was introduced into the aortic arch through the left femoral artery. A collateral of the left femoral vein was cannulated for infusion of anaesthetic, and the right femoral vein was cannulated for administration of compounds. For intraarterial (i.a.) injection of noradrenaline (NA), a PE catheter was introduced into the lower portion of the abdominal aorta via the right external iliac artery. Through such procedure, NA was selectively distributed to the lower urinary tract. A paramedian vertical suprapubic incision extending from the base of the pelvis to the mid-abdominal region was made and the bladder and the prostate were exposed. The bladder was manually emptied with a syringe. Prostatic urethral pressure was monitored with a Mikro-tip catheter (5F) introduced into the bladder via the external urethral meatus, and withdrawn until the pressure transducer was positioned in the prostatic region of the urethra. A ligature was secured between the neck of the bladder and urethra to isolate the response of the latter and to avoid any interaction with the bladder. Another ligature was put around the Mikro-tip catheter at the external meatus, to secure the catheter itself.
(§5) After a stabilizing period following the surgical procedure (30 minutes), in which arterial and prostatic urethral pressures were continuously monitored as basal values, i.a. administration of NA was made at intervals of 20 minutes.
(§6) The NA doses were chosen to produce an increase of at least 100% in urethral pressure. The test compounds were administered intravenously in a cumulative manner with intervals of 15-20 minutes between administrations. […]

In experiment [5] the target is T2, recombinant α1d-adrenoceptor (Homo sapiens, UniProt P25100).
T2 construct: expressed in transfected cells
T2 sequence (P25100 1-572): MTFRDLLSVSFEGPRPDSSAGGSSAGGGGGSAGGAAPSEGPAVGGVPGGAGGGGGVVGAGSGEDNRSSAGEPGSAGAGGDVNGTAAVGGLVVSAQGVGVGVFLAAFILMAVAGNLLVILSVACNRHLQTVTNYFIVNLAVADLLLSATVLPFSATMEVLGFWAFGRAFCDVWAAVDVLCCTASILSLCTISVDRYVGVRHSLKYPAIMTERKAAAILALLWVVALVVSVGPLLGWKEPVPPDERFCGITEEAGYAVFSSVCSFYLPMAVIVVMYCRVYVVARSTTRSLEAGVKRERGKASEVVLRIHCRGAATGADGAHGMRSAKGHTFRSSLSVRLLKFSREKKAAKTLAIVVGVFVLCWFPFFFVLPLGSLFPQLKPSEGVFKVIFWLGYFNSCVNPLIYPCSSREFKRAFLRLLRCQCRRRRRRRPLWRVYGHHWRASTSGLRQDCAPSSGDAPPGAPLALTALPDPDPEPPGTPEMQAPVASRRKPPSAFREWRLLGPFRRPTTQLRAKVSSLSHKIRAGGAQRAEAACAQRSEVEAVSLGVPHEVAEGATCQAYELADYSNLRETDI
The experiment is described as follows: Radioligand binding ([3H]prazosin) to cloned α1d adrenoceptor. To be noted: read-out: Affinity (Ki) α1d. The procedure:
as §1, §2, §3

In experiment [6] the target is T3, recombinant α1b-adrenoceptor (Homo sapiens, UniProt P35368).
T3 construct: expressed in transfected cells
T3 sequence (P35368 1-520): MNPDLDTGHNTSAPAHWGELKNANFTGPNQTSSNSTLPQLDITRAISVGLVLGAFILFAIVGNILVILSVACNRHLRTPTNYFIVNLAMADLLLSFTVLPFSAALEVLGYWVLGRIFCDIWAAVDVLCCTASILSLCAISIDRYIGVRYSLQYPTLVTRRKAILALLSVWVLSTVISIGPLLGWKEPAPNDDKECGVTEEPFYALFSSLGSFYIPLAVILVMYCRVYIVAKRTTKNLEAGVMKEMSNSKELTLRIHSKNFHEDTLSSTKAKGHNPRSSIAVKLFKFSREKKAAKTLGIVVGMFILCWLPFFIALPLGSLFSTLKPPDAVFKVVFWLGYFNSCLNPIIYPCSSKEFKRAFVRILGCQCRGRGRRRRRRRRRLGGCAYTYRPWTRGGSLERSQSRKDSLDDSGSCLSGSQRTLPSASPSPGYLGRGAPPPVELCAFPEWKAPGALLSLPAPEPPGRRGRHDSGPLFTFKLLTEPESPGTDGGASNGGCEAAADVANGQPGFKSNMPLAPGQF
Kind of experiment: Radioligand binding ([3H]prazosin) to cloned α1b adrenoceptor. The conditions noted are these: read-out: Affinity (Ki) α1b. As to the method: as §1, §2, §3

Experiment [7] concerns prostatic urethral contractions induced by noradrenaline. Kind of experiment: Urethral contractions induced by noradrenaline injection in anaesthetized dogs after intravenous administration. The class given is in vivo. To be noted: dog, i.v. As to the method: as §4, §5, §6
The target of experiment [8] is T4, human 5-HT1A-serotoninergic receptor (Homo sapiens, UniProt P08908).
T4 construct: expressed in transfected cells; host or cells: HeLa
T4 sequence (P08908 1-422): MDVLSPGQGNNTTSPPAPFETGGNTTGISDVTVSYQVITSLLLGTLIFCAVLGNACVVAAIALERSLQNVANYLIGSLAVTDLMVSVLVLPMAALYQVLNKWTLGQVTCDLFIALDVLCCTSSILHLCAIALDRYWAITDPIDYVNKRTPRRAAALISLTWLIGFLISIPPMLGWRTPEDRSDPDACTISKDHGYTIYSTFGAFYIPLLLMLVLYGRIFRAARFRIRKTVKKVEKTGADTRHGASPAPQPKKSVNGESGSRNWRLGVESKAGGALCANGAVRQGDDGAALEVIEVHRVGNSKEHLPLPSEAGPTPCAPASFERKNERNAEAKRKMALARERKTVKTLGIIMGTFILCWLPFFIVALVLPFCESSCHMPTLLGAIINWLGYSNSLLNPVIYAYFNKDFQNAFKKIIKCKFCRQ
Kind of experiment: Radioligand binding ([3H]8-OH-DPAT) to cloned 5-HT1A receptor in HeLa cell membranes. To be noted: read-out: Affinity (Ki) 5-HT1A. As to the method:
HeLa cells were grown as monolayers in Dulbecco's modified Eagle's medium (DMEM), supplemented with 10% fetal calf serum and gentamicin (100 μg/mL), at 37° C. in 5% CO2. The cells were detached from the growth flask at 95% confluence by a cell scraper and were lysed in a buffer containing ice cold 5 mM Tris, 5 mM EDTA (pH 7.4). The homogenates were centrifuged at 40,000×g for 20 minutes and the membranes were resuspended in a small volume of ice-cold buffer containing 5 mM Tris and 5 mM, EDTA (pH 7.4), and immediately frozen and stored at −70° C. until use.
Non-specific binding was determined in the presence of 10 μM 5-HT. Incubation was stopped by addition of ice-cold Tris buffer and rapid filtration through Schleicher & Schuell GF52 filters that had been pretreated with 0.2%-polyethyleneimine.
as §3

For the next experiment, the target named is T5, α1L adrenoceptor (Oryctolagus cuniculus, UniProt O02824).
T5 sequence (O02824 1-466): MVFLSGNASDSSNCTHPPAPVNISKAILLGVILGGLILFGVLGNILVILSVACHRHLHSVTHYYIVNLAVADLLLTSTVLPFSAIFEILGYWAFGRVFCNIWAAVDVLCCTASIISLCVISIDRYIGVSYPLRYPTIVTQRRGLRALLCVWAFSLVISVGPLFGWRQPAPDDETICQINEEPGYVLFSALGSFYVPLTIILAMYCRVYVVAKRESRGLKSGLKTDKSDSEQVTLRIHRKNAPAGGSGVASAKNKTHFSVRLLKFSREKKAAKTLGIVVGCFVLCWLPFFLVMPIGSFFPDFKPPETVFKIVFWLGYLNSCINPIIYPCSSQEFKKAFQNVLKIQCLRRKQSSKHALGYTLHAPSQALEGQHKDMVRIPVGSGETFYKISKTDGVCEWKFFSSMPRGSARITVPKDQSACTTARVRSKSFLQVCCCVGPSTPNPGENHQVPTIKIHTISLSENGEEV
Kind of experiment: Functional antagonism of noradrenaline-induced contractions of rabbit aorta pretreated with chloroethylclonidine. The class given is biochemical. To be noted: NA-induced contractions. As to the method:
Adult male New Zealand rabbits were sacrificed by cervical dislocation. The aorta was removed, placed in Krebs-Henseleit buffer and dissected free of adhering tissue. […] Desmethylimipramine (0.1 μM) and corticosterone (1 μM) to block neuronal and extraneuronal uptake of NA, (±)-propranol (1 μM) to block β adrenoceptors and yohimbine (0.1 μM) to block α2 adrenoceptors were added to the buffer.
The preparations were equilibrated for 60 minutes and then primed every 30 minutes with 10 μM NA for three times. The aortic rings were then incubated with the alkylating agent chloroethylclonidine (50 μM) for 30 minutes and then washed extensively three times, over a 30 min period before constructing the NA-concentration/response curve. Following washing, tissue was re-equilibrated for 45 min. Test drug was added and after 30 minutes, a second cumulative-NA-concentration/response curve was constructed. Each antagonist concentration was tested using 2-3 aortic rings from different rabbits.
Dose ratios (i.e., the ratio between the concentrations of noradrenaline required to produce half-maximal response in the presence and in the absence of the test antagonist) were calculated at each concentration of the compounds. The logarithm of these dose ratio −1 was plotted against the logarithm of the compound concentrations (Schild plot) to evaluate the affinity constant Kb.
When only one or two concentrations of the test compounds were utilised, the apparent Kb value was calculated using the formula: Kb=[B]/(DOSE RATIO-1), where B is the antagonist concentration.

Read-outs that look alike come from different tables or passages of the source.

For the compound `COc1ccccc1N1CCN(CCCNC(=O)c2cccc3c(=O)c(C)c(-c4ccccc4)oc23)CC1` [Compound A], in experiment [1], the “UC ID50 NA (dose inhibiting by 50% the urethral contractions induced by noradrenaline)” value is 0.0024 mg/kg. For the same compound, the “DBP ED25 (dose inducing a 25% decrease in diastolic blood pressure)” value in the experiment on diastolic blood pressure [2] is 0.243 mg/kg.
Turning to `COc1ccc(Cl)cc1N1CCN(CCCNC(=O)c2csc3c(=O)cc(-c4ccccc4)oc23)CC1` [Example 1, N-{3-[4-(5-Chloro-2-methoxyphenyl)1-piperazinyl]propyl}-7-oxo-5-phenyl-7H-thieno[3,2-b]Pyran-3-carboxamide], the Ki was 0.58 nM in [3], 4.12 nM in experiment [5] and 2.53 nM in [6]. Also, in the experiment with diastolic blood pressure [4], the “DBP ED25 (dose inducing a 25% decrease in diastolic blood pressure)” value came out at 0.28 mg/kg. Also, in experiment [7], the “UC ID50 NA (dose inhibiting by 50% the urethral contractions induced by noradrenaline)” value worked out at 0.0053 mg/kg.
Turning to `COc1ccccc1N1CCN(CCCNC(=O)c2csc3c(=O)cc(C(F)(F)F)oc23)CC1` [Example 4, N-{3-[4-(2-Methoxyphenyl)-1-piperazinyl]propyl}-7-oxo-5-trifluoromethyl-7H-thieno[3,2b]pyran-3-carboxamide], the Ki came to 26.2 nM in experiment [8], 0.6 nM in experiment [3], 3.6 nM in experiment [5] and 23.2 nM in experiment [6]. The “pKb, functional affinity for the α1L adrenoceptor subtype” value on α1L adrenoceptor was 7.92.
On to `COc1ccc(OCC(F)(F)F)cc1N1CCN(CCCNC(=O)c2csc3c(=O)cc(-c4ccccc4)oc23)CC1` [Example 6, N-{3-[4-[2-Methoxy-5-(2,2,2-trifluoroethoxy)phenyl]-1-piperazinyl]propyl}-7-oxo-5-phenyl7H-thieno[3,2-b]pyran-3-carboxamide], for which the Ki in experiment [8] stood at 1080 nM; in experiment [3], 3.19 nM; in [5], 48.2 nM; in experiment [6], 39.3 nM.
Consider `O=C(NCCCN1CCN(c2ccc(F)cc2OCC(F)(F)F)CC1)c1csc2c(=O)cc(-c3ccccc3)oc12` [Example 7, N-{3-[4-[4-Fluoro-2-(2,2,2-trifluoroethoxy)phenyl]-1-piperazinyl]propyl}-7-oxo-5-phenyl-7H-thieno[3,2-b]pyran-3-carboxamide], for which the Ki in experiment [8] amounted to 88.5 nM; in experiment [3], 0.17 nM; in experiment [5] it was 2.45 nM; in experiment [6], 3.47 nM. At α1L adrenoceptor, the “pKb, functional affinity for the α1L adrenoceptor subtype” value came out at 8.66.
